Experimental data published in patent publication US9096591B2, “Tetracyclic compounds” (Medivation Technologies, Inc., priority 2007, dated 2015).

Key:
[1] = target: T1, human recombinant serotonin (5-Hydroxytryptamine) 5-HT2C receptor (Homo sapiens, UniProt P28335); test: Serotonin 5-HT2C radioligand binding ([3H]Mesulergine); parameters: Inhibition of ligand binding, Ser. 5-HT2C: concentration or dose not given beside the values; settings: for Inhibition of ligand binding, Ser. 5-HT2C: percent inhibition of specific binding; for inhibition at 1 µM: compounds screened at 1 μM, read-out: Inhibition of ligand binding, Ser. 5-HT2C (percent inhibition of specific binding)
T1 construct: expressed in transfected cells; host or cells: CHO-K1 cells
T1 sequence (P28335 33-458): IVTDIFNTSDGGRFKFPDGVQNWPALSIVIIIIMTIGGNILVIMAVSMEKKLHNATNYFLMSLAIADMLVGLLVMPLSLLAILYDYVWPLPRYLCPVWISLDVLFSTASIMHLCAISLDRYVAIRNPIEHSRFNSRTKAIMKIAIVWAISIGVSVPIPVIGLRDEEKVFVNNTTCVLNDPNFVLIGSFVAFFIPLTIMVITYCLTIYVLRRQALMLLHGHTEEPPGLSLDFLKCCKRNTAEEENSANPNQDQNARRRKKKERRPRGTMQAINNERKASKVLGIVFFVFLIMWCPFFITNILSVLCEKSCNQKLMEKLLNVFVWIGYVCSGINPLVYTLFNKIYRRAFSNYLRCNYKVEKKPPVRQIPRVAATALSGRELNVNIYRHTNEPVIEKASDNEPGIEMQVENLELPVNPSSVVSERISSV
Experimental: (§1) Compounds of the invention were incubated with 1 nM [^3H]Mesulergine for 60 minutes at 25° C. Non-specific binding was estimated in the presence of 1 μM Mianserin. Receptor proteins were filtered and washed, the filters were then counted to determine [^3H]Mesulergine specifically bound. […] Biochemical assay results are presented as the percent inhibition of specific binding in Table 6.

[2] = target: T2, human recombinant serotonin (5-Hydroxytryptamine) 5-HT6 receptor (Homo sapiens, UniProt P50406); test: Serotonin 5-HT6 radioligand binding ([3H]LSD); parameters: Inhibition of ligand binding, Ser. 5-HT6: concentration or dose not given beside the values; settings: for Inhibition of ligand binding, Ser. 5-HT6: percent inhibition of specific binding; for inhibition at 1 µM: compounds screened at 1 μM, read-out: Inhibition of ligand binding, Ser. 5-HT6 (percent inhibition of specific binding)
T2 construct: expressed in transfected cells; host or cells: human HeLa cells
From the text: Receptor proteins were filtered and washed, the filters were then counted to determine [3H]LSD specifically bound. […] Biochemical assay results are presented as the percent inhibition of specific binding in Table 6.

[3] = target: T3, human recombinant adrenergic α2B receptor (Homo sapiens, UniProt P18089); test: Adrenergic α2B radioligand binding ([3H]Rauwolscine); parameters: Inhibition of ligand binding, Adren. alpha2B: concentration or dose not given beside the values; settings: for Inhibition of ligand binding, Adren. alpha2B: percent inhibition of specific binding; for inhibition at 1 µM: compounds screened at 1 μM, read-out: Inhibition of ligand binding, Adren. alpha2B (percent inhibition of specific binding)
T3 construct: expressed in transfected cells; host or cells: CHO-K1 cells
T3 sequence (P18089 1-450): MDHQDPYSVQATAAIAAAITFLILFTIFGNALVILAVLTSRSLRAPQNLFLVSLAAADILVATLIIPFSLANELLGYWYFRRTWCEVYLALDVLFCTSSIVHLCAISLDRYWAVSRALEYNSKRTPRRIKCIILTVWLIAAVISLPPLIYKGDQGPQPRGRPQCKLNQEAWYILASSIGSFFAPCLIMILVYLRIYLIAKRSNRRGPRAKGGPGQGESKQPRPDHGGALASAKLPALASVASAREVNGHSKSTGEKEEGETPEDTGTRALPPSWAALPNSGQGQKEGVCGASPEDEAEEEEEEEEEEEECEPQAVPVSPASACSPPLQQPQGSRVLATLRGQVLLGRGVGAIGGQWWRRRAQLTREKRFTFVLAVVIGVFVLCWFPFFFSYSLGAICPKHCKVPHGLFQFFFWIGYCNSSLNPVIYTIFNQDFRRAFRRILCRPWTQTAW
Summary of the method: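 Incubation ran 60 minutes at 25 °C in modified Tris-HCl buffer (50 mM, pH 7.4, 12.5 mM MgCl2, 1 mM EDTA, 0.2% BSA) using CHO-K1-expressed human receptor.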

[4] = target: T4, Serotonin (5-Hydroxytryptamine) 5-HT7 (Homo sapiens, UniProt P34969); test: Serotonin 5-HT7 radioligand binding ([3H]LSD); parameters: Inhibition of ligand binding, Ser. 5-HT7: concentration or dose not given beside the values; settings: for Inhibition of ligand binding, Ser. 5-HT7: percent inhibition of specific binding; for inhibition at 1 µM: compounds screened at 1 μM, read-out: Inhibition of ligand binding, Ser. 5-HT7 (percent inhibition of specific binding)
T4 construct: expressed in transfected cells; host or cells: CHO cells
Experimental: Lysergic acid diethylamide (LSD) for 2 hours at 25° C. […] Receptor proteins were filtered and washed, the filters were then counted to determine [^3H]LSD specifically bound. […] Biochemical assay results are presented as the percent inhibition of specific binding in Table 6.

[5] = target: T5, human recombinant adrenergic α1D receptor (Homo sapiens, UniProt P25100); test: Adrenergic α1D radioligand binding ([3H]Prozosin); parameters: Inhibition of ligand binding, Adren. alpha1D: concentration or dose not given beside the values; settings: for Inhibition of ligand binding, Adren. alpha1D: percent inhibition of specific binding; for inhibition at 1 µM: compounds screened at 1 μM, read-out: Inhibition of ligand binding, Adren. alpha1D (percent inhibition of specific binding)
T5 construct: expressed in transfected cells; host or cells: HEK-293 cells
T5 sequence (P25100 1-572): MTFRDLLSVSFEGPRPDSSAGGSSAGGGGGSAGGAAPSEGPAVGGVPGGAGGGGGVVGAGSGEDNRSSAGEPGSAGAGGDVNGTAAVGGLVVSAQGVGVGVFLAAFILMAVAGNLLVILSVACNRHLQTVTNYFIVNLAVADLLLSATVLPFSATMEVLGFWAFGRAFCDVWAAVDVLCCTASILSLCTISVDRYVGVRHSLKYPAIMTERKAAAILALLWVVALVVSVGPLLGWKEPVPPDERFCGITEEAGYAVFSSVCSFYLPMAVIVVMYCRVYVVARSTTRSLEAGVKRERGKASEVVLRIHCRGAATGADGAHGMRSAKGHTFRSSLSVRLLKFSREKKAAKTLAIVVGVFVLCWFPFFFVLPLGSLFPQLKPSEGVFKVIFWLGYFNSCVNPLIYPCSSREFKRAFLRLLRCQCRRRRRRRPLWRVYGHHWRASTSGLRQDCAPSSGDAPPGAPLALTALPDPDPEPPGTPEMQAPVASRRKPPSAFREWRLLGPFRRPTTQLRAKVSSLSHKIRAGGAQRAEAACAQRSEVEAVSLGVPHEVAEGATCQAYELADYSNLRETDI
Experimental: as §1, with “of” for “of the”, “with 0.6” for “with 1”, “nM [^3H]Prozosin” for “nM [^3H]Mesulergine”, “of 10” for “of 1”, “μM phentolamine.” for “μM Mianserin.”, “determine [^3H]Prozosin” for “determine [^3H]Mesulergine”

T4 sequence (P34969 whole entry): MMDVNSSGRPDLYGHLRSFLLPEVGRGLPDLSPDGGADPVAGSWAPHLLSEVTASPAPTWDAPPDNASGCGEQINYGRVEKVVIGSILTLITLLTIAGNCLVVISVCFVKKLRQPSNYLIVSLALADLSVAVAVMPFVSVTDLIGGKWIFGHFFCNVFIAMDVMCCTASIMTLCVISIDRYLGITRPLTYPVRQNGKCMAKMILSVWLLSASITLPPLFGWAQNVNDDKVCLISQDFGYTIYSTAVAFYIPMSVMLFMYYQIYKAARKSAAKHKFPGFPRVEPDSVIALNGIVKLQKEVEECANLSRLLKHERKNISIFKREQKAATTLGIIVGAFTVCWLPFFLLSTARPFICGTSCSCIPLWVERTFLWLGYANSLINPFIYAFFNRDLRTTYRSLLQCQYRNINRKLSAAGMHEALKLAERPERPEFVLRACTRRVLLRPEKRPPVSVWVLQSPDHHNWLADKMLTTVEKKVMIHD
T2 sequence (P50406 whole entry): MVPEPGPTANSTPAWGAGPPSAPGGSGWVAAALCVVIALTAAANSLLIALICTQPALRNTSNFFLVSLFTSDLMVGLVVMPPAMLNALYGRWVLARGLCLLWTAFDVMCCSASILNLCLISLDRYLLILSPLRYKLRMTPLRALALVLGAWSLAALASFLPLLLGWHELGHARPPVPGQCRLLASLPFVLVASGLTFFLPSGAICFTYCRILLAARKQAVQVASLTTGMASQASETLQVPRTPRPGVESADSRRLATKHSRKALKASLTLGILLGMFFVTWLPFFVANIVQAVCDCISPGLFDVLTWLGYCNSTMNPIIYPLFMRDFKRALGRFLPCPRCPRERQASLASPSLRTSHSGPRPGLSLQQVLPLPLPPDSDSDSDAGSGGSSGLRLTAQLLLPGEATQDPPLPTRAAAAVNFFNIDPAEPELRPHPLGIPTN

| SMILES | Inhibition of ligand binding, Ser. 5-HT2C [1] [%] | Inhibition of ligand binding, Ser. 5-HT6 [2] [%] | Inhibition of ligand binding, Adren. alpha2B [3] [%] | Inhibition of ligand binding, Ser. 5-HT7 [4] [%] | Inhibition of ligand binding, Adren. alpha1D [5] [%] | also measured |
| --- | --- | --- | --- | --- | --- | --- |
| CCN1CCc2c(c3ccccc3n2CCc2ccccn2)C1 [Compound 6] | 34 | 7 | 54 | 39 | 6 |  |
| Cc1ccc2c(c1)c1c(n2CCc2ccc(C(=O)O)nc2)CCN(C)C1 [Compound 255] | 11 | 2 | 4 | 11 | 2 |  |
| Cc1ccc2c(c1)c1c(n2Cc2ccccc2)CCN(C)C1 [Compound 137, 5-benzyl-2,3,4,5-tetrahydro-2,8-dimethyl-1H-pyrido[4,3-b]indole] | 10 | 12 | 3 | 15 | 12 |  |
| Cc1ccc2c(c1)c1c(n2CCc2ccc(C)nc2)CC[N+](C)([O-])C1 (centres unmarked) [Example 93, 2,8-dimethyl-5-(2-(6-methylpyridin-3-yl)ethyl)-2,3,4,5-tetrahydro-1H-pyrido[4,3-b]indole 2-oxide] |  |  |  |  |  | Ser. 5-HT2C ([1]; inhibition profile): 9; Ser. 5-HT6 ([2]; inhibition profile): 11; Adren. alpha2B ([3]; inhibition profile): 36; Ser. 5-HT7 ([4]; inhibition profile): 35; Adren. alpha1D ([5]; inhibition profile): 19 |
| Cc1ccc(CCn2c3c(c4cc(C(=O)O)ccc42)CNCC3)cn1 [Compound 274, 2,3,4,5-tetrahydro-5-(2-(6-methylpyridin-3-yl)ethyl)-1H-pyrido[4,3-b]indole-8-carboxylic acid] | −5 | −2 | 9 | −3 | −16 |  |
| CCOC(=O)N1CCc2c(c3cc(C)ccc3n2CCc2ccccc2)C1 [Compound 24, ethyl 3,4-dihydro-8-methyl-5-phenethyl-1H-pyrido[4,3-b]indole-2(5H)-carboxylate] | 1 | −4 | −1 | −2 | 6 |  |
| Cc1ccc2c(c1)c1c(n2CCCc2ccccn2)CCN(C)C1 [Compound 233, 2,3,4,5-tetrahydro-2,8-dimethyl-5-(3-(pyridin-2-yl)propyl)-1H-pyrido[4,3-b]indole] | 93 | 95 | 96 | 101 | 49 |  |
| Cc1ccc2c(c1)c1c(n2CCc2ccc(C)nc2)C(Br)C(=O)N(C)C1 (centres unmarked) [Compound 232, 4-bromo-1,2-dihydro-2,8-dimethyl-5-(2-(6-methylpyridin-3-yl)ethyl)-4H-pyrido[4,3-b]indol-3(5H)-one] | 2 | −7 | 8 | 6 | 5 |  |
| CCOC(=O)N1CCc2c(c3cc(Br)ccc3n2CCc2ccc(C)nc2)C1 [Compound 18, ethyl 8-bromo-3,4-dihydro-5-(2-(6-methylpyridin-3-yl)ethyl)-1H-pyrido[4,3-b]indole-2(5H)-carboxylate] | −14 | 6 | −8 | 10 | −10 |  |
| CN1CCc2c(c3ccccc3n2CCc2noc(-c3ccccc3)n2)C1 [Compound C4-1] |  |  |  |  |  | inhibition at 1 µM [1]: 91%; inhibition at 1 µM [2]: 51%; inhibition at 1 µM [3]: 94%; inhibition at 1 µM [4]: 88%; inhibition at 1 µM [5]: 60% |
| COc1ccc2c(c1)c1c(n2CCc2nc(-c3ccccc3)cs2)CCN(C)C1 [Compound C1-6] |  |  |  |  |  | inhibition at 1 µM [1]: 90%; inhibition at 1 µM [2]: 84%; inhibition at 1 µM [3]: 110%; inhibition at 1 µM [4]: 57%; inhibition at 1 µM [5]: 72% |
| Cc1ccc2c(c1)c1c(n2CCN2CCCC2)CCN(C)C1 [Compound 221, 2,3,4,5-tetrahydro-2,8-dimethyl-5-(2-(pyrrolidin-1-yl)ethyl)-1H-pyrido[4,3-b]indole] | 69 | 29 | 26 | 36 | 30 |  |
| Cc1ccc2c(c1)c1c(n2CCc2noc(-c3ccccc3)n2)CCN(C)C1 [Compound C4-4] |  |  |  |  |  | inhibition at 1 µM [1]: 98%; inhibition at 1 µM [2]: 103%; inhibition at 1 µM [3]: 102%; inhibition at 1 µM [4]: 96%; inhibition at 1 µM [5]: 92% |
| CN1CCc2c(c3cc(Cl)ccc3n2CCc2ccccc2)C1 [Compound 36, 8-chloro-2,3,4,5-tetrahydro-2-methyl-5-phenethyl-1H-pyrido[4,3-b]indole] | 94 | 104 | 104 | 99 | 87 |  |
| CN1CCc2c(c3cc(F)ccc3n2CCc2nc(-c3ccccc3)cs2)C1 [Compound C1-7] |  |  |  |  |  | inhibition at 1 µM [1]: 91%; inhibition at 1 µM [2]: 91%; inhibition at 1 µM [3]: 113%; inhibition at 1 µM [4]: 90%; inhibition at 1 µM [5]: 66% |
| CN1CCc2c(c3cc(I)ccc3n2CCc2ccccc2F)C1 [Compound 89, 5-(2-fluorophenethyl)-2,3,4,5-tetrahydro-8-iodo-2-methyl-1H-pyrido[4,3-b]indole] | 97 | 103 | 116 | 100 | 82 |  |
